One assay concerns the target T1, vanilloid receptor (VR1) (Rattus norvegicus, UniProt O35433).
T1 construct: expressed in transfected cells; host or cells: CHO K1 cells (ECACC)
In words: Functional investigations on vanilloid receptor (VR1): Ca2+ influx FLIPR assay in CHO K1 cells stably transfected with the VR1 gene. Type of assay: cell-based, rats. The settings on record: method (b), 10 μM, 1–3 measurements; for inhibition at 10 µM: CHO-K1, read-out: VR1 inhibition in rats (10 μM) [%]. An excerpt: (b) Functional Investigations on Vanilloid Receptor (VR1)
The agonistic or antagonistic action of the substances to be investigated on the vanilloid receptor (VR1) may be determined with the following assay. According to this assay, the influx of Ca^2+ through the channel is quantified with the assistance of a Ca^2+-sensitive dye (type Fluo4, Molecular Probes Europe BV, Leiden, Netherlands) in a Fluorescent Imaging Plate Reader (FLIPR, Molecular Devices, Sunnyvale, USA).
Chinese hamster ovary cells (CHO K1 cells, European Collection of Cell Cultures (ECACC), Great Britain) are stably transfected with the VR1 gene. For functional investigations, these cells are plated out onto poly-D-lysine-coated, black 96 well plates with a clear bottom (BD Biosciences, Heidelberg, Germany) at a density of 25,000 cells/well. The cells are incubated overnight at 37° C. and 5% CO2 in a culture medium (Ham's Nutrient Mixture F12, 10 vol. % FCS (foetal calf serum), 18 μg/mL L-proline). On the following day, the cells are incubated with Fluo4 (Fluo4 2 μM, Pluronic F127 0.01 vol. %, Molecular Probes in HBSS (Hank's buffered saline solution), Gibco Invitrogen GmbH, Karlsruhe, Germany) for 30 minutes at 37° C. The plates are then washed 3 times with HBSS buffer and, after a further 15 minutes' incubation at room temperature, used for Ca^2+ measurement in the FLIPR. Ca^2+-dependent fluorescence is here measured before and after addition of the substances to be investigated (wavelength λex=488 nm, λem=540 nm). Quantification proceeds by measuring the highest fluorescence intensity (FC, fluorescence counts) over time.
The FLIPR protocol comprises 2 additions of substance. […] The percentage inhibition in comparison with the maximum achievable inhibition with 10 μM capsazepine is calculated.

The target of assay [1] is T2, vanilloid receptor VR1 (capsaicin receptor) (Rattus norvegicus, UniProt O35433).
T2 construct: isolated from the spinal cord of male Sprague Dawley rats (breeder: Charles River Deutschland, 32699 Extertal) and used for preparation of the membrane; from tissue; host or cells: rat spinal cord (cervical region and one third of the thoracic region) membranes
T2 sequence (O35433 whole entry): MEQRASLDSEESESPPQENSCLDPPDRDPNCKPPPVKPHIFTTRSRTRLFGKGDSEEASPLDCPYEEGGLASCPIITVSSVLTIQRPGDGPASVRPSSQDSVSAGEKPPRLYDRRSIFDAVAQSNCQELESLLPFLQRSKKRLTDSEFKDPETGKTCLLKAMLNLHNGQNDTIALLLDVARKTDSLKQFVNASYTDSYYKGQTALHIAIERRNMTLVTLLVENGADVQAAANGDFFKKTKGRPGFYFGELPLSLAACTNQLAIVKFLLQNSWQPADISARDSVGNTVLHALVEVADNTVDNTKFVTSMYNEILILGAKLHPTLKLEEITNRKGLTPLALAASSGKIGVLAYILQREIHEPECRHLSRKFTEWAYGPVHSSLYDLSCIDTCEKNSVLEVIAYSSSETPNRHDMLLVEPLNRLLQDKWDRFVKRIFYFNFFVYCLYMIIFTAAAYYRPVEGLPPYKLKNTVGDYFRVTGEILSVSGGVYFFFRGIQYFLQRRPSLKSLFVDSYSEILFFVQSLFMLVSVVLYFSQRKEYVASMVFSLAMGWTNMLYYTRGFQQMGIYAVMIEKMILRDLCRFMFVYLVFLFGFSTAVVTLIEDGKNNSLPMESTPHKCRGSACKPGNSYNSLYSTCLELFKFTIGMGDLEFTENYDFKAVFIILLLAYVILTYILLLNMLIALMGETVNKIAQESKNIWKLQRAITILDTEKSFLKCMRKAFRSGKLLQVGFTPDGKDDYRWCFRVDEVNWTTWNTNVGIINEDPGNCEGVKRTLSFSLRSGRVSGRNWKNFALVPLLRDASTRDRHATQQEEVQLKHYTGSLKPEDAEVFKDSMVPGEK
The assay can be described thus: Determination of affinity for vanilloid receptor VR1 ([3H] resiniferatoxin binding, rat spinal cord membranes). Also noted: species or system Sprague Dawley rats. An excerpt:
This method was developed on the basis of the publication by Acs et al., J. Neurochem. 65, 301-308 (1995). The corresponding description is hereby introduced as a reference and is deemed to be part of the disclosure.
• Sprague Dawley rats weighing between 150-300 g • (breeder: Charles River Deutschland, 32699 Extertal, Germany) • HEPES (item no. H-3375, SIGMA) • NaCl (item no. 6400.1000; Merck) • KCl (item no.: 4936.1000; Merck) • HCl (item no.: 1.00317; Merck) • [^3H] resiniferatoxin ([^3H] RTX) (item no.: NET-1132, Perkin-Elmer) • Resiniferatoxin (RTX, cold) (item no.: 550-179-M001, Alexis) • D-Glucose (item no.: 1.08337.1000, Merck) • Sucrose (item no.: S-9378, Sigma) • α1-acid glycoprotein (item no.: G-3643, Sigma) • BSA (bovine serum albumin, item no.: A-2153, Sigma) • GF/B filter mats (Brandel Inc., cat. no. FP 100, size: 2¼″×12¼″)
Buffer: (Concentration values in brackets in each case in mM)
• HEPES (10); KCl (5); NaCl (5.8); CaCl (0.75); MgCl (2.0); D-glucose (12); • sucrose (137). The pH value is adjusted at room temperature using 20% strength HCl. B. Preparation of Membranes
The cervical region and one third of the following thoracic region is isolated from the spinal cord of male Sprague Dawley rats (breeder: Charles River Deutschland, 32699 Extertal) and used for preparation of the membrane. After the combined tissue is weighed, it is homogenized in ice-cooled buffer of the above-stated composition. 20 ml of buffer were used per 1 g of tissue (1:20 weight/volume). Homogenisation performed with a homogeniser from Kinematica, model Polytron PT-3000 with PT-DA-3012/2 drive unit. The spinal cord tissue is disrupted within 60 seconds in the cold buffer with ice cooling at a rotational speed of 6000 rpm. The material is then centrifuged for 10 minutes at 1000 g and +4° C. and the resultant precipitate discarded. The […] in the same volume of buffer of the above-stated composition. The material is then centrifuged for 40 minutes at 48,000 g and +4° C. and the supernatant discarded. The resultant precipitate is resuspended in 30 ml of buffer of the above-stated composition and used in this form in the vanilloid receptor (VR1) assay.
Incubation is performed in the water bath for one hour at 37° C. The samples are then placed in an ice bath for 15 minutes. In order to minimise nonspecific adsorption of the RTX, 100 μg of α1-acid glycoprotein (in 50 μl of buffer) are added to each incubation tube. The samples are then thoroughly mixed on a vortex shaker and left to stand for 10 minutes. The batches are then filtered with the assistance of the model M-24R “Brandel Cell Harvester” through a GF/B glass fiber filter mat which has been presoftened in tris buffer. The filter is then rinsed through 3 times with 4 ml portions of ice-cold HEPES buffer of the above-stated composition for each sample. The filters are transferred into scintillation counter vessels, each is combined with a 10 ml portion of “Ready Protein” scintillating material, and the vessels are closed with screw caps. The vessels are shaken on the vortex shaker and left to stand for at least 15 hours in the fume cupboard. The samples are then measured on the β-counter (model 1409 Wallac, Perkin Elmer, 63110 Rogau-Jügesheim, Germany).

Molecules are shown by their SMILES. Counter-ions that a name gives are not always drawn. Like-named read-outs stand apart in the source and are kept apart here.

T1 sequence (O35433 whole entry): as above

On to `CCCCCC(C)(C)Nc1c(-c2ccoc2)nc2cc(C)ccn12.Cl` [Example 14, (1,1-Dimethyl-hexyl)-(2-furan-3-yl-7-methyl-imidazo[1,2-a]pyridin-3-yl)-amine hydrochloride], for which, on vanilloid receptor (VR1), the inhibition (in general, the share of the control response that was lost under treatment) at 10 µM was 97.9% and the “VR1 activation in rats (10 μM) [%]” value was found to be 52.1%.

Regarding `CCCCCCCNc1c(-c2ccoc2)nc2ccccn12` [Example 6, (2-Furan-3-yl-imidazo[1,2-a]pyridin-3-yl)-heptyl-amine hydrochloride], the inhibition at 10 µM on vanilloid receptor (VR1) turned out to be 66.4%.

With `CCCCCCCC(C)(C)Nc1c(-c2ccoc2)nc2cc(C)ccn12` [Example 16, (1,1-Dimethyl-octyl)-(2-furan-3-yl-7-methyl-imidazo[1,2-a]pyridin-3-yl)-amine hydrochloride], the inhibition at 10 µM on vanilloid receptor (VR1) turned out to be 31.8%.

Take `CC1(C)C[C@H]2C=C(C=O)[C@]3(C=O)C[C@]3(C)[C@H]2C1` [Isovelleral]: the IC50 (commonly the concentration that inhibits the measured activity by half) in assay [1] is 7.22 µM.

Take `CCCCCCCCNc1c(-c2ccoc2)nc2cc(C)ccn12.Cl` [Example 12, (2-Furan-3-yl-7-methyl-imidazo[1,2-a]pyridin-3-yl)-octyl-amine hydrochloride]: at vanilloid receptor (VR1), the inhibition at 10 µM came out at 84.6% and the “VR1 activation in rats (10 μM) [%]” value is given as 36.9%.

For `CCCCCCCNc1c(-c2ccoc2)nc2cc(C)ccn12.Cl` [Example 11, (2-Furan-3-yl-7-methyl-imidazo[1,2-a]pyridin-3-yl)-heptyl-amine hydrochloride], on vanilloid receptor (VR1), the inhibition at 10 µM turned out to be 81.7% and the “VR1 activation in rats (10 μM) [%]” value is reported as 50.3%.

For the compound `CCCCCCCCCNc1c(-c2cccnc2)nc2cc(C)ccn12` [Example 23, (7-Methyl-2-pyridin-3-yl-imidazo[1,2-a]pyridin-3-yl)-nonyl-amine hydrochloride], the inhibition at 10 µM on vanilloid receptor (VR1) was 34.4%.

For `CCCCCCC(C)(C)Nc1c(-c2ccoc2)nc2cc(C)ccn12.Cl` [Example 15, (1,1-Dimethyl-heptyl)-(2-furan-3-yl-7-methyl-imidazo[1,2-a]pyridin-3-yl)-amine hydrochloride], at vanilloid receptor (VR1), the inhibition at 10 µM amounted to 92.5% and the “VR1 activation in rats (10 μM) [%]” value is listed as 49%.

For the compound `CCCCCC(C)(C)Nc1c(-c2ccsc2)nc2cc(C)ccn12.Cl` [Example 17, (1,1-Dimethyl-hexyl)-(7-methyl-2-thiophen-3-yl-imidazo[1,2-a]pyridin-3-yl)-amine hydrochloride], on vanilloid receptor (VR1), the inhibition at 10 µM amounted to 97.5% and the “VR1 activation in rats (10 μM) [%]” value was 68.9%.

As to `CCCCCC(C)(C)Nc1c(-c2ccoc2)nc2ccccn12` [Example 7, (1,1-Dimethyl-hexyl)-(2-furan-3-yl-imidazo[1,2-a]pyridin-3-yl)-amine hydrochloride], at vanilloid receptor (VR1), the inhibition at 10 µM came to 46%.

Turning to `CCCCC/C=C\C/C=C\C/C=C\C/C=C\CCCC(=O)NCc1ccc(O)c(OC)c1` [Arvanil], in assay [1] ([3H] RTX 100 pM, rat spinal cord membranes, comparison substances, read-out: IC50 (VR-1 receptor affinity, reference data)), the IC50 worked out at 8.9 µM.

Consider `CCCCCC(C)(C)Nc1c(-c2ccncc2)nc2cc(C)ccn12` [Example 26, (1,1-Dimethyl-hexyl)-(7-methyl-2-pyridin-4-yl-imidazo[1,2-a]pyridin-3-yl)-amine hydrochloride], for which, at vanilloid receptor (VR1), the inhibition at 10 µM came out at 32.1%.

For `CCCCCC(C)(C)Nc1c(-c2ccoc2)nc2ccc(C)cn12` [Example 28, (1,1-Dimethyl-hexyl)-(2-furan-3-yl-6-methyl-imidazo[1,2-a]pyridin-3-yl)-amine hydrochloride], the inhibition at 10 µM on vanilloid receptor (VR1) amounted to 36.6%.

Turning to `CCCCCCC(C)(C)Nc1c(-c2ccsc2)nc2cc(C)ccn12.Cl` [Example 18, (1,1-Dimethyl-heptyl)-(7-methyl-2-thiophen-3-yl-imidazo[1,2-a]pyridin-3-yl)-amine hydrochloride], on vanilloid receptor (VR1), the inhibition at 10 µM is 62.8% and the “VR1 activation in rats (10 μM) [%]” value is 45.3%.

As to `CCCCCCCCNc1c(-c2ccncc2)nc2cc(C)ccn12` [Example 25, (7-Methyl-2-pyridin-4-yl-imidazo[1,2-a]pyridin-3-yl)-octyl-amine hydrochloride], the inhibition at 10 µM on vanilloid receptor (VR1) was found to be 33.2%.

Take `COc1cc(CNC(=O)CCCCCCC(C)C)ccc1O` [Dihydrocapsaicin]: the IC50 in assay [1] came out at 2.72 µM.

`C=C(C)[C@]12C[C@@H](C)[C@@]34O[C@](Cc5ccccc5)(O[C@@H]1[C@@H]3C=C(COC(=O)Cc1ccc(O)c(OC)c1)C[C@]1(O)C(=O)C(C)=C[C@@H]41)O2` [Resiniferatoxin] came in with an IC50 in assay [1] of 0.00021 µM.

Consider `CCCCCCCCNc1c(-c2ccoc2)nc2ccc(C)cn12` [Example 27, (2-Furan-3-yl-6-methyl-imidazo[1,2-a]pyridin-3-yl)-octyl-amine hydrochloride], for which, on vanilloid receptor (VR1), the inhibition at 10 µM was 61.1%.

Values taken from patent US7592351B2, “Substituted imidazo[1,2-a]pyridine compounds and pharmaceutical preparations containing substituted imidazo[1,2-a]pyridine compounds” (Gruenenthal GmbH, priority 2004, dated 2009).
